Results on eight compounds are retold here after patent US7928099B2, “Pyrimido [4,5-D] azepine derivatives as 5-HT2c agonists” (Pfizer Inc, priority 2007, dated 2011).

The conditions of assay [1]: man; cited from earlier work.
For assay [2] the following is noted: conscious rats and monkeys; i.v., i.p., s.c. or i.m. administration; cited from earlier work.
The conditions of assay [3]: cited from earlier work; for bladder capacity: anaesthetized guinea-pig cystometry; for urethral EMG activity: anaesthetized guinea-pig urethral EMG model.
The conditions of assay [4]: anaesthetized dog; cited from earlier work.
Assay [5] concerns the target T1, human recombinant 5-HT2c receptor (Homo sapiens, UniProt P28335).
T1 construct: expressed in transfected cells; host or cells: CHO K1 (Chinese hamster ovary), stably transfected
T1 sequence (P28335 33-458): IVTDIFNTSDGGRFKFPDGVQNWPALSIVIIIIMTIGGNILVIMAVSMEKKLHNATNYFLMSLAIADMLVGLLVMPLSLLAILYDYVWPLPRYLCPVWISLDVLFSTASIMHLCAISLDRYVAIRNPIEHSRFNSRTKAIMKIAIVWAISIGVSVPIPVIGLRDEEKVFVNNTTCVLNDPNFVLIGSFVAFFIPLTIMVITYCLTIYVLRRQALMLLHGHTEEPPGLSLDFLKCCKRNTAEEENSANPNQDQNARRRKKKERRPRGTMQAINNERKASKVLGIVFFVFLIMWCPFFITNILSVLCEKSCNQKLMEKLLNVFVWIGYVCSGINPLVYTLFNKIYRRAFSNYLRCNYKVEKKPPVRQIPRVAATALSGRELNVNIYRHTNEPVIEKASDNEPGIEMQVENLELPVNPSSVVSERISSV
The assay can be described thus: FLIPR fluorescent Ca2+ mobilisation agonist assay in CHO K1 cells (Method 1). In kind it is cell-based. The conditions noted are these: for Emax: CHO-K1, efficacy, percentage of mean maximal response to 10 μM 5-HT; for EC50: agonist affinity, FLIPR. On the technique in general: Calcium assays in cells follow changes in intracellular calcium, usually with a dye or a luminescent sensor.

Assay [6] concerns the target T1, human recombinant 5-HT2c receptor. The assay can be described thus: 3H-meselurgine radioligand binding SPA, membranes from Swiss 3T3 cells (Method 2). The conditions noted are these: 3H-meselurgine displacement, Cheng-Prusoff; Swiss 3T3 membranes; read-out: Binding Affinity Ki.

On to `O=c1n(CCCN2CCN(c3cccc(Cl)c3)CC2)nc2ccccn12` [trazodone], for which the proerectile activity result in assay [1] is “associated with proerectile activity”.

As to `Clc1cccc(N2CCNCC2)c1` [m-CPP], the proerectile activity entry in assay [1] is reported as “associated with proerectile activity”. In addition, the penile erection entry in assay [2] is “enhance penile erection”. Moreover, in assay [3], the bladder capacity entry is recorded as “doses related increases” and the “urethral EMG activity” value was “doses related increases”.

As to `C[C@H](N)Cn1ccc2cc(F)c(Cl)cc21` [Ro-60-0175], in assay [2], the penile erection result is “enhance penile erection”. Besides, in assay [3], the bladder capacity entry is “doses related increases” and the “urethral EMG activity” value was “doses related increases”. Moreover, the urethral pressure result in assay [4] is on record as “increased urethral pressure in a dose-dependent manner”.

Consider `CCc1cc2c(ccc3cnn(C[C@H](C)N)c32)o1` [YM348], for which, in assay [3], the bladder capacity result is listed as “doses related increases” and the “urethral EMG activity” value is listed as “doses related increases”.

Consider `C1CCN(c2nc3c(c(N4CCSCC4)n2)CCNCC3)C1` [Example 106, 2-pyrrolodin-1-yl-4-thiomorpholin-4-yl-6,7,8,9-tetrahydro-5H-pyrimido[4,5-d]azepine], for which, in assay [5], the Emax came out at 78.4% and the EC50 was determined as 100 nM. The inhibitory constant (Ki) in assay [6] amounted to 41.6 nM.

`Cc1cccc(Cc2ncc3c(n2)CCNCC3)c1` [Example 65, 2-(3-Methylbenzyl)-6,7,8,9-tetrahydro-5H-pyrimido[4,5-d]azepine]: in assay [5], the Emax stood at 83.9% and the EC50 amounted to 211 nM. The Ki in assay [6] was 244 nM.

Consider `CN(C)c1nc(N(C)CC2CC2)nc2c1CCNCC2` [Example 104, N-2-(cyclopropylmethyl)-N-2,N-4,N-4-trimethyl-6,7,8,9-tetrahydro-5H-pyrimido[4,5-d]azepine-2,4-diamine], for which, in assay [5], the maximal response (Emax) is 69% and the EC50 came out at 282 nM. Further, the Ki in assay [6] amounted to 90.3 nM.

In the case of `Cc1nc(Cc2ccccc2)nc2c1CCNCC2` [Example 68, 2-Benzyl-4-methyl-6,7,8,9-tetrahydro-5H-pyrimido[4,5-d]azepine], in assay [5], the Emax is 71.4% and the EC50 amounted to 179 nM. Further, in assay [6], the Ki was 421 nM.

One may read the Emax as the size of the effect at its maximum, as opposed to the concentration needed. As a reminder, the EC50 is the midpoint of the concentration-response curve. The Ki is a measure of affinity in units of concentration, obtained from inhibition or displacement.
